{
  "source": "patent US20100222439A1",
  "about": "“BEVERAGE CONTAINING A POLYMERIC POLYPHENOL” (CONOPCO, INC., D/B/A UNILEVER, priority 2009, published 2010)",
  "experiment": "Theaflavins feeding model (optical density)",
  "type": "physicochemical",
  "description": "A 3 mg/mL aqueous solution of theaflavins was prepared at 80 degrees Celsius. 0.625 mg/mL aqueous solutions of whey protein isolate and iota carrageenan were prepared and all three solutions combined to yield a solution with 1.5 mg/mL theaflavins, 0.156 mg/mL whey protein isolate and 0.156 mg/mL iota carrageenan. The following feeding programme was used with the 3 mg/mL aqueous solution of theaflavins being either at ambient temperature (reference “Procedure B”) or at 80 degrees Celsius (reference “Procedure A”) when combined with the ambient temperature 0.625 mg/mL aqueous solutions of whey protein isolate and iota carrageenan:\nTF+WPI/IC: 25 mL whey protein isolate solution and 25 mL iota carrageenan solution are premixed and added to 50 mL theaflavins solution. TF+IC: 25 mL iota carrageenan solution is added to 50 mL of theaflavins solution and 25 mL of deionised water added. TF+WPI: 25 mL whey protein isolate solution is added to 50 mL of theaflavins solution and 25 mL of deionised water added. TFWPI+IC: 25 mL whey protein isolate solution is added to 50 mL theaflavins solution, and then 25 mL iota carrageenan solution is added after 10 minutes. […]\nAll the samples were stored at 4 degrees Celsius for 24 hours in order to equilibrate the tea creaming process before measurement of turbidity at 600 nm with a Safire2™ microplate reader (Tecan Group Ltd.).",
  "data": [
    {"substance": "Iota carrageenan", "values": [
      {"measurement": "Effect on solubility of theaflavin", "result": "decreases the solubility of theaflavin"}
    ]}
  ]
}
